Measurements: a compilation of properties of binary mixtures (doi:10.1016/j.fluid.2015.05.023)

Test: xn = mol fraction of the nth substance listed
Conditions: 100 kPa

CCCn1cc[n+](C)c1.O=S(=O)([N-]S(=O)(=O)C(F)(F)F)C(F)(F)F + O
x2 = 0.272
Conditions	viscosity [mPa·s]
298.15 K	26.63
303.15 K	22.24
313.15 K	16.12
328.15 K	10.73
333.15 K	9.52
338.15 K	8.5
348.15 K	6.9
358.15 K	5.69
363.15 K	5.22

CCCCCCCCCn1cc[n+](C)c1.O=S(=O)([N-]S(=O)(=O)C(F)(F)F)C(F)(F)F + O
x2 = 0.1736
Conditions	viscosity [mPa·s]
303.15 K	57.66
313.15 K	39.1
328.15 K	22.64
333.15 K	19.7
338.15 K	16.81
343.15 K	14.67
348.15 K	12.89
353.15 K	11.68

CCCn1cc[n+](CCC)c1.O=S(=O)([N-]S(=O)(=O)C(F)(F)F)C(F)(F)F + O
x2 = 0.2232
Conditions	viscosity [mPa·s]
298.15 K	35.66
308.15 K	24.31
318.15 K	17.47
323.15 K	15.05
328.15 K	13.09
338.15 K	10.15
343.15 K	9.03
353.15 K	7.29
358.15 K	6.6

CC[n+]1ccn(C)c1.O=S(=O)([N-]S(=O)(=O)C(F)(F)F)C(F)(F)F + O
x2 = 0.298
Conditions	viscosity [mPa·s]
298.15 K	18.97
308.15 K	14.06
318.15 K	10.83
323.15 K	9.63
328.15 K	8.615
338.15 K	7.02
343.15 K	6.382
348.15 K	5.832
353.15 K	5.35
358.15 K	4.926
363.15 K	4.549

CCCCCCCCn1cc[n+](CCCCCCCC)c1.O=S(=O)([N-]S(=O)(=O)C(F)(F)F)C(F)(F)F + O
x2 = 0.1246
Conditions	viscosity [mPa·s]
298.15 K	120.2
313.15 K	58.75
318.15 K	47.76
323.15 K	39.33
328.15 K	32.75
333.15 K	27.56
338.15 K	23.43
343.15 K	20.09
348.15 K	17.37
353.15 K	15.13
363.15 K	11.72

CCCCCCC[n+]1ccn(C)c1.O=S(=O)([N-]S(=O)(=O)C(F)(F)F)C(F)(F)F + O
x2 = 0.1971
Conditions	viscosity [mPa·s]
298.15 K	52.98
303.15 K	42.58
313.15 K	28.95
328.15 K	17.77
333.15 K	15.4
338.15 K	13.45
343.15 K	11.85
348.15 K	10.51
353.15 K	9.36
363.15 K	7.58

CCCCCCCCCCCn1cc[n+](C)c1.O=S(=O)([N-]S(=O)(=O)C(F)(F)F)C(F)(F)F + O
x2 = 0.1567
Conditions	viscosity [mPa·s]
298.15 K	96.4
303.15 K	75.7
308.15 K	60.46
313.15 K	49.36
318.15 K	40.26
323.15 K	33.49
328.15 K	28.17
333.15 K	24.19
343.15 K	17.77
348.15 K	15.5
353.15 K	13.94
358.15 K	12.05
363.15 K	10.72

CCCCCn1cc[n+](CCCCC)c1.O=S(=O)([N-]S(=O)(=O)C(F)(F)F)C(F)(F)F + O
x2 = 0.1575
Conditions	viscosity [mPa·s]
298.15 K	66.87
303.15 K	53.1
308.15 K	42.91
318.15 K	29.21
323.15 K	24.56
328.15 K	20.86
333.15 K	17.88
343.15 K	13.46
348.15 K	11.83
353.15 K	10.46
363.15 K	8.34
